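Protocol summary: plate cells (96-well), add compound at 5 concentrations, incubate 48 h, interpolate endpoints linearly. GI50 = concentration required for 50% inhibition of growth.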 Calls of active or inactive are those of the source. Rule as the data show it: active = GI50 up to about 1.1 µM and inactive = higher.
Legend:
Assay in all cases: NCI anticancer screen, dose series, 48 h
[1] = test system: 786-0
[2] = test system: A498
[3] = test system: A549
[4] = test system: ACHN
[5] = test system: CAKI-1
[6] = test system: CCRF-CEM
[7] = test system: COLO 205
[8] = test system: DU-145
[9] = test system: EKVX
[10] = test system: HCC 2998
[11] = test system: HCT-116
[12] = test system: HCT-15
[13] = test system: HL-60
[14] = test system: HOP-62
[15] = test system: HOP-92
[16] = test system: HT-29
[17] = test system: IGROV-1
[18] = test system: K562
[19] = test system: KM12
[20] = test system: LOX IMVI
[21] = test system: M14
[22] = test system: MCF7
[23] = test system: MDA-MB-231
[24] = test system: MDA-MB-435
[25] = test system: MDA-N
[26] = test system: MOLT-4
[27] = test system: Malme-3M
[28] = test system: NCI-H226
[29] = test system: NCI-H23
[30] = test system: NCI-H460
[31] = test system: NCI-H522
[32] = test system: NCI/ADR-RES
[33] = test system: OVCAR-3
[34] = test system: OVCAR-4
[35] = test system: OVCAR-5
[36] = test system: OVCAR-8
[37] = test system: PC-3
[38] = test system: RPMI-8226
[39] = test system: RXF 393
[40] = test system: SF-268
[41] = test system: SF-295
[42] = test system: SF-539
[43] = test system: SK-MEL-28
[44] = test system: SK-MEL-2
[45] = test system: SK-MEL-5
[46] = test system: SK-OV-3
[47] = test system: SN12C
[48] = test system: SNB-19
[49] = test system: SNB-75
[50] = test system: SR
[51] = test system: SW-620
[52] = test system: T47D
[53] = test system: TK-10
[54] = test system: U-251
[55] = test system: UACC-257
[56] = test system: UACC-62
[57] = test system: UO-31
[58] = test system: Hs-578T

SMILES: O=C(c1ccccc1)N1C(=S)N(c2ccccn2)C(=N/c2ccccc2)/C1=N\c1ccccc1
- GI50 [1]: 16.7 µM (inactive)
- GI50 [2]: > 66.5 µM (inactive)
- GI50 [3]: 27.5 µM (inactive)
- GI50 [4]: 9.93 µM (inactive)
- GI50 [5]: 10.5 µM (inactive)
- GI50 [6]: 2.57 µM (inactive)
- GI50 [7]: 28.8 µM (inactive)
- GI50 [8]: > 61.9 µM (inactive)
- GI50 [9]: 24 µM (inactive)
- GI50 [10]: > 93.5 µM (inactive)
- GI50 [11]: 12.8 µM (inactive)
- GI50 [12]: 3.79 µM
- GI50 [13]: 3.66 µM (inactive)
- GI50 [14]: 27.4 µM (inactive)
- GI50 [15]: 6.67 µM (inactive)
- GI50 [16]: 11.5 µM (inactive)
- GI50 [17]: 13 µM (inactive)
- GI50 [18]: 7.18 µM (inactive)
- GI50 [19]: 5.43 µM (inactive)
- GI50 [20]: 12.4 µM (inactive)
- GI50 [21]: 55.6 µM (inactive)
- GI50 [22]: 60.8 µM (inactive)
- GI50 [23]: 23.3 µM (inactive)
- GI50 [24]: 19.6 µM (inactive)
- GI50 [25]: 11.4 µM (inactive)
- GI50 [26]: 4.01 µM (inactive)
- GI50 [27]: 20 µM (inactive)
- GI50 [28]: > 69.3 µM (inactive)
- GI50 [29]: 6.4 µM (inactive)
- GI50 [30]: 29.5 µM (inactive)
- GI50 [31]: 2.16 µM (inactive)
- GI50 [32]: 10.5 µM (inactive)
- GI50 [33]: 18.2 µM (inactive)
- GI50 [34]: 10.5 µM (inactive)
- GI50 [35]: 11.2 µM (inactive)
- GI50 [36]: 8.28 µM (inactive)
- GI50 [37]: 9.84 µM (inactive)
- GI50 [38]: 7.91 µM (inactive)
- GI50 [39]: 5.11 µM (inactive)
- GI50 [40]: 24.9 µM (inactive)
- GI50 [41]: 25.5 µM (inactive)
- GI50 [42]: 12.9 µM (inactive)
- GI50 [43]: 22.3 µM (inactive)
- GI50 [44]: 13.6 µM (inactive)
- GI50 [45]: 19.1 µM (inactive)
- GI50 [46]: 43.6 µM (inactive)
- GI50 [47]: 31.5 µM (inactive)
- GI50 [48]: 25.5 µM (inactive)
- GI50 [49]: 20.5 µM (inactive)
- GI50 [50]: 3.86 µM (inactive)
- GI50 [51]: 5.19 µM (inactive)
- GI50 [52]: 15.1 µM (inactive)
- GI50 [53]: 25.1 µM (inactive)
- GI50 [54]: 8.11 µM (inactive)
- GI50 [55]: 23 µM (inactive)
- GI50 [56]: 11.2 µM (inactive)
- GI50 [57]: 9.68 µM (inactive)

SMILES: Cc1ncc([N+](=O)[O-])n1CCNCCCn1ccnc1[N+](=O)[O-]
- GI50 [1]: > 100 µM (inactive)
- GI50 [3]: > 100 µM (inactive)
- GI50 [6]: > 100 µM (inactive)
- GI50 [9]: > 10 µM (inactive)
- GI50 [10]: > 100 µM (inactive)
- GI50 [11]: > 100 µM (inactive)
- GI50 [12]: > 100 µM
- GI50 [13]: > 100 µM (inactive)
- GI50 [14]: > 100 µM (inactive)
- GI50 [16]: > 100 µM (inactive)
- GI50 [58]: > 100 µM (inactive)
- GI50 [18]: > 100 µM (inactive)
- GI50 [19]: > 100 µM (inactive)
- GI50 [22]: > 100 µM (inactive)
- GI50 [26]: > 100 µM (inactive)
- GI50 [27]: > 100 µM (inactive)
- GI50 [28]: > 100 µM (inactive)
- GI50 [29]: > 100 µM (inactive)
- GI50 [30]: > 100 µM (inactive)
- GI50 [31]: > 100 µM (inactive)
- GI50 [33]: > 100 µM (inactive)
- GI50 [35]: 75.3 µM (inactive)
- GI50 [36]: > 100 µM (inactive)
- GI50 [37]: > 100 µM (inactive)
- GI50 [38]: > 100 µM (inactive)
- GI50 [40]: > 100 µM (inactive)
- GI50 [41]: > 100 µM (inactive)
- GI50 [42]: > 100 µM (inactive)
- GI50 [43]: > 100 µM (inactive)
- GI50 [44]: > 100 µM (inactive)
- GI50 [45]: > 100 µM (inactive)
- GI50 [47]: > 100 µM (inactive)
- GI50 [49]: > 100 µM (inactive)
- GI50 [50]: > 100 µM (inactive)
- GI50 [51]: > 100 µM (inactive)
- GI50 [53]: 70.3 µM (inactive)
- GI50 [54]: > 100 µM (inactive)
- GI50 [55]: > 100 µM (inactive)

SMILES: O=CC(O)C(O)C(O)C(O)COP(=O)(O)Cc1ccccc1 (centres undefined)
- GI50 [6]: > 10 µM (inactive)
- GI50 [7]: > 10 µM (inactive)
- GI50 [13]: > 10 µM (inactive)
- GI50 [17]: > 10 µM (inactive)
- GI50 [21]: > 10 µM (inactive)
- GI50 [24]: > 10 µM (inactive)
- GI50 [26]: > 10 µM (inactive)
- GI50 [27]: > 10 µM (inactive)
- GI50 [56]: > 10 µM (inactive)
